Calls of active or inactive are those of the source. The rule behind the calls is not given here.
Experiments:
Enterococcus faecium = test: Antimicrobial activity against Enterococcus faecium 34 assessed as reduction in microbial growth incubated for 18 hrs by broth microdilution method; assay type: functional
Escherichia coli [1] = test: Antimicrobial activity against Escherichia coli CMCC44102 assessed as reduction in microbial growth incubated for 18 hrs by broth microdilution method; assay type: functional
Trypsin = Trypsin (Homo sapiens, UniProt P07477+P07478+P35030); test: Stability of compound assessed as trypsin (unknown origin) mediated drug degradation […] measured at 24 hrs by RP-HPLC analysis; assay type: ADME, protein assay; conditions: read-out: Activity
Escherichia coli [2] = test: Antimicrobial activity against Escherichia coli ATCC 25922 measured at 8 hrs in presence of mouse serum; assay type: functional, organism-based
Staphylococcus aureus [3] = test: Antimicrobial activity against Staphylococcus aureus CMCC 26003 at 5 times MIC measured at 180 mins; assay type: functional, organism-based
Acinetobacter baumannii [4] = test: Drug resistance, ratio of MIC for Acinetobacter baumannii ATCC1960 after 40 passages to MIC for Acinetobacter baumannii ATCC1960 during first exposure; assay type: functional
Staphylococcus aureus [5] = test: Antibiofilm activity against Staphylococcus aureus CMCC 26003 assessed as biofilm eradication incubated for 24 hrs by crystal violet staining based analysis; assay type: functional, organism-based
Acinetobacter baumannii [6] = test: Antibiofilm activity against Acinetobacter baumannii ATCC 19606 assessed as inhibition of biofilm formation at 4 to 8 times MIC incubated for 48 hrs by crystal violet staining based analysis; assay type: functional
Acinetobacter baumannii [7] = test: Antipersister-activity against Acinetobacter baumannii ATCC 19606 assessed as elimination of persister cells at 8 times MIC preincubated adherent persistent cells with colistin incubation for 24 hrs; assay type: functional
Cell membrane [8] = test: Disruption of cell membrane integrity in Staphylococcus aureus CMCC 26003 assessed as cell membrane damage at 5 times MIC measured after 30 mins by scanning electron microscopic analysis; assay type: subcellular
Cell membrane [9] = test: Induction of outer membrane permeabilization in Escherichia coli ATCC 25922 at 5 times MIC measured for 1 hr by NPN-dye based fluorescence analysis; assay type: subcellular
Escherichia coli [10] = test: Antibacterial activity against Escherichia coli ATCC 25922 at 1 times MIC in presence of 25 microg/ml exogenous DNA; assay type: functional, organism-based
[11] = Acute toxicity in BALB/c mouse assessed as mortality at 50 mg/kg, iv measured for 24 hrs; assay type: organism-based; conditions: in vivo, read-out: Activity
Acinetobacter baumannii [12] = test: In vivo antibacterial activity against Acinetobacter baumannii ATCC19606 infected in BALB/c mouse assessed as survival at 15 mg/kg, ip administered for 12 hrs and measured on day 7; assay type: functional
Acinetobacter baumannii [13] = test: In vivo antibacterial activity against Acinetobacter baumannii ATCC19606 infected in BALB/c mouse assessed as survival at 15 mg/kg, ip administered for 12 hrs and measured after 3 hrs; assay type: functional; conditions: time 15 hrs
Acinetobacter baumannii [14] = test: In vivo antibacterial activity against Acinetobacter baumannii ATCC19606 infected in BALB/c mouse assessed as reduction in bacterial load at 15 mg/kg, ip; assay type: functional, organism-based; conditions: time 3.0 hrs
Acinetobacter baumannii [15] = test: In vivo antibacterial activity against Acinetobacter baumannii ATCC19606 infected in BALB/c mouse assessed as reduction in bacterial load in liver at 15 mg/kg, ip measured after 3 hrs; assay type: functional, organism-based
Staphylococcus aureus [16] = test: Antibiofilm activity against Staphylococcus aureus CMCC 26003 assessed as reduction in biofilm formation at 0.5 to 8 times MIC incubated for 24 hrs by crystal violet staining based analysis; assay type: functional; design: scale not given: the % may be the effect or the level left
Escherichia coli [17] = test: Antimicrobial activity against Escherichia coli ATCC 25922 assessed as fold increase in MIC measured at 8 hrs in presence of mouse serum; assay type: functional
Staphylococcus aureus [18] = test: Antimicrobial activity against Staphylococcus aureus CMCC 26003 assessed as fold increase in MIC measured at 8 hrs in presence of mouse serum; assay type: functional
RAW264.7 = test: Cytotoxicity against mouse RAW264.7 cells upto 200 microg/ml by MTT assay; assay type: toxicity, cell-based; conditions: dose < 200 µg/ml
Escherichia coli [19] = test: Antimicrobial activity against Escherichia coli ATCC 25922 assessed as bacterial eradication at 5 times MIC measured within 30 mins; assay type: functional, organism-based
Staphylococcus aureus [20] = test: Antimicrobial activity against Staphylococcus aureus CMCC 26003 assessed as bacterial eradication at 5 times MIC measured within 120 mins; assay type: functional, organism-based
Escherichia coli [21] = test: Bactericidal activity against Escherichia coli ATCC 25922 at 5 times MIC measured within 120 mins; assay type: functional, organism-based
Cell membrane [22] = test: Induction of cell membrane permeabilization in Escherichia coli ATCC 25922 by propidium iodide dye-based fluorescence assay; assay type: subcellular
Cell membrane [23] = test: Induction of cell membrane permeabilization in Escherichia coli ATCC 25922 at 2 times MIC measured for 1 hr by propidium iodide dye-based fluorescence assay; assay type: subcellular
Escherichia coli [24] = test: Antimicrobial activity against Escherichia coli ATCC 25922 assessed as fold increase in MIC incubated for 18 hrs in presence of phosphatidylglycerol; assay type: functional
Acinetobacter baumannii [25] = test: Antimicrobial activity against Acinetobacter baumannii ATCC 19606 assessed as fold increase in MIC incubated for 18 hrs in presence of phosphatidylglycerol; assay type: functional
Escherichia coli [26] = test: Antimicrobial activity against Escherichia coli ATCC 25922 assessed as fold increase in MIC incubated for 18 hrs in presence of cardiolipin; assay type: functional
Acinetobacter baumannii [27] = test: Antimicrobial activity against Acinetobacter baumannii ATCC 19606 assessed as fold increase in MIC incubated for 18 hrs in presence of cardiolipin; assay type: functional
Escherichia coli [28] = test: Antimicrobial activity against Escherichia coli ATCC 25922 incubated for 18 hrs in presence of CCCP; assay type: functional, organism-based
Staphylococcus aureus [29] = test: Antimicrobial activity against Staphylococcus aureus CMCC 26003 incubated for 18 hrs in presence of CCCP; assay type: functional, organism-based

## CC[C@H](C)[C@H](NC(=O)[C@@H](CCCNC(=N)N)NC(=O)[C@H](CO)NC(=O)[C@H](Cc1c[nH]cn1)NC(=O)[C@@H](CCCNC(=N)N)NC(=O)[C@H](CC(C)C)NC(=O)[C@@H](NC(=O)[C@@H](CCCNC(=N)N)NC(=O)CNC(=O)[C@H](CC(C)C)NC(=O)[C@H](CCC(N)=O)NC(=O)[C@@H](CCCCN)NC(=O)[C@@H](CCCNC(=N)N)NC(=O)[C@@H](NC(=O)[C@@H](CCCCN)NC(=O)[C@@H](CCCCN)NC(=O)[C@@H](N)Cc1ccccc1)C(C)C)C(C)C)C(=O)N[C@H](C(=O)N[C@H](C(=O)NCC(=O)NCC(=O)N[C@H](CCCNC(=N)N)C(=O)N[C@@H](CCSC)C(=O)N[C@H](CCCNC(=N)N)C(=O)N[C@@H](Cc1ccccc1)C(=O)O)C(C)C)[C@@H](C)O
Enterococcus faecium
  MIC: 75 mg/L
Escherichia coli [1]
  MIC: 18.8 mg/L
Trypsin
  metabolised at 24 h: < 60%
Escherichia coli [2]
  Activity: inactive
Staphylococcus aureus [3]
  Activity: inactive
Acinetobacter baumannii [4]
  Ratio: 1
Staphylococcus aureus [5]
  Activity: Active
Acinetobacter baumannii [6]
  inhibition (INH): 80%
Acinetobacter baumannii [7]
  Activity: 97.1%
Cell membrane [8]
  Activity: Active
Cell membrane [9]
  Activity: 100%
Escherichia coli [10]
  Activity: inactive
[11]
  mortality at 24 h: 0%
Acinetobacter baumannii [12]; time 7.0 day
  Activity: Active
Acinetobacter baumannii [13]
  Activity: >60%
Acinetobacter baumannii [14]
  Activity: Time-dependent-effect
Acinetobacter baumannii [15]
  Activity: Active

## CC[C@H](C)[C@H](NC(=O)[C@H](CCCNC(=N)N)NC(=O)[C@H](CO)NC(=O)[C@H](Cc1c[nH]cn1)NC(=O)[C@H](CCCNC(=N)N)NC(=O)[C@H](CC(C)C)NC(=O)[C@@H](NC(=O)[C@H](CCCNC(=N)N)NC(=O)CNC(=O)[C@H](CC(C)C)NC(=O)[C@H](CCC(N)=O)NC(=O)[C@H](CCCCN)NC(=O)[C@H](CCCNC(=N)N)NC(=O)[C@@H](NC(=O)[C@H](CCCCN)NC(=O)[C@H](CCCCN)NC(=O)[C@@H](N)Cc1ccccc1)C(C)C)C(C)C)C(=O)N[C@H](C(=O)N[C@H](C(=O)NCC(=O)NCC(=O)N[C@@H](CCCNC(=N)N)C(=O)N[C@@H](CCSC)C(=O)N[C@@H](CCCNC(=N)N)C(=O)N[C@@H](Cc1ccccc1)C(=O)O)C(C)C)[C@@H](C)O
Enterococcus faecium
  MIC: 18.8 mg/L
Staphylococcus aureus [16]
  Activity: 40%
Escherichia coli [1]
  MIC: 2.34 mg/L
Escherichia coli [17]
  fold change (FC): 8
Staphylococcus aureus [18]
  fold change (FC): 16
RAW264.7
  Activity: Non-toxic
Escherichia coli [19]
  Activity: Active
Staphylococcus aureus [20]
  Activity: Active
Escherichia coli [21]
  Activity: Active
Acinetobacter baumannii [4]
  Ratio: 1
Staphylococcus aureus [5]
  Activity: Active
Cell membrane [8]
  Activity: Active
Cell membrane [22]
  Activity: Dose-dependent-effect
Cell membrane [23]
  Activity: > 90%
Escherichia coli [24]
  fold change (FC): 16
Acinetobacter baumannii [25]
  fold change (FC): 16
Escherichia coli [26]
  fold change (FC): 8
Acinetobacter baumannii [27]
  fold change (FC): 8
Escherichia coli [28]
  Activity: Dose-dependent-effect
Staphylococcus aureus [29]
  Activity: Dose-dependent-effect
[11]
  mortality at 24 h: 16.7%
Acinetobacter baumannii [12]; ATCC19606, 168 h, time 7 day
  survival at 15 mg/kg: 40%
Acinetobacter baumannii [13]
  Activity: >60%
Acinetobacter baumannii [14]
  Activity: Time-dependent-effect
Acinetobacter baumannii [15]
  Activity: Active
